Results as given in US20260097073A1, “PROCESS FOR THE PREPARATION OF TUNGSTEN (VI) SALT HYDRATES” (OXOLIFE, S.L., priority 2022, published 2026).

Key:
[1] = Stability test: loss on drying with time; type: physicochemical
Description: The present inventors confirmed the stability of the hydrate resulting from the process of the invention determining the loss on drying with time.
To that end a well-mixed sample of the sodium tungstate hydrate resulting from Example 2, was subjected to the following protocol. Dry clean glass-stopper, shallow weighing bottle under the same conditions to be employed in the determination. Cool to room temperature in a desiccator and take the weight accurately (W1) g. Transfer to the bottle 1 g of the sample, cover it and accurately weigh the bottle and the contents (W2) g. Place the loaded bottle in the drying chamber (oven), remove the stopper and leave it also in the chamber. Dry the sample to the specified time and temperature to a constant mass (105° C.). After drying is completed, open the drying chamber, close the bottle promptly and allow it to cool to room temperature (where applicable) in a desiccator before weighing. Weigh the bottle and the contents (W3) g. Calculation:
The loss on drying should be not more than 15% (w/w).

[2] = Drying of the hydrate salt: loss of the water molecules (IR); type: physicochemical
Method: In this case, the precipitation was performed by adding 2.0 volumes of either MeOH, EtOH, acetone or IPA at room temperature. After overnight stirring at room temperature, the suspensions were filtered at room temperature, and the cakes were washed by percolation with 0.4 volumes of H2O/solvent (1:1), and with 0.4 volumes of the corresponding solvent. […]
This phenomenon was observed when recording the IR spectra of the synthesized and dried products, as none of them show the stretching and bending bands typical of water molecules (FIG. 2).

- loss on drying with time ([1]; 6-month 40° C./75% HR): the loss was maintained
- loss on drying with time ([1]; 18-month test at 25° C./60% HR): the loss was maintained
- loss on drying ([1]; sodium tungstate hydrate resulting from Example 2, dried at 105° C. to constant mass, limit not more than 15% (w/w)): below 15%
- fraction of the starting salt that lost the molecules of water ([2]; vacuum dried at a mild temperature of about 50° C.): ~94%
Structure (SMILES): O.O.[Na+].[Na+].[O]=[W](=[O])([O-])[O-] [Na2WO4·2H2O, sodium tungstate dihydrate]
- stability of the waters of hydration on drying ([2]; drying processes at 100-110° C., IR spectra): dehydration processes of the tungsten salt were detected
